Laboratory results taken from patent US20260207623A1, “USE OF ESTETROL IN HEPATICALLY IMPAIRED PATIENTS” (ESTETRA SRL, priority 2022, published 2026).
Several values for one entry are separate records, joined by “and”; a condition that tells them apart may be missing. Equal entries are not always repeated. Where two headings read alike, the source gives them in different places.

Assay: Phase 1 pharmacokinetic study of a single oral dose of 20 mg E4 monohydrate in female subjects with normal hepatic function and mild, moderate or severe hepatic impairment (plasma, LC-MS/MS, non-compartmental analysis)
Assay type: in vivo, human
Conditions: for AUC(0-t) / Cmax / half-life / Tmax / Vd/F / AUC(0-inf): female, human, plasma, po, 20 mg; for Tmax: read-out: Tmax, Median
Protocol: This was a Phase 1, multi-centre, open-label, PK, and safety study of a single oral dose of 20 mg E4 monohydrate in female subjects with normal hepatic function (Group 1), mild hepatic impairment (Group 2), moderate hepatic impairment (Group 3), and severe hepatic impairment (Group 4), as defined using the Child-Pugh classification at Screening.
The study consisted of an eligibility Screening period (within 28 days prior to study drug administration), an Assessment Period with in-house period and outpatient visits (including a single oral dose of 20 mg E4 on Day 1), and a follow up visit. All subjects were confined to the study site from Day-1 (the day before dosing) until Day 4 and returned to the site every day from Day 5 to Day 9. Alternatively, the subjects could stay for a prolonged in-house period in agreement with the Investigator. The follow-up visit occurred on Day 14 (+2 days).
All subjects arrived at the study site in the morning of Day-1 in a fasted state (no food for at least 8 h, water was allowed) to have the scheduled assessments performed in order to confirm eligibility as outlined in the inclusion and exclusion criteria (Section 2.3.1 and Section 2.3.2, respectively). In the morning of Day 1 following an overnight fast, the subjects received oral dosing of 20 mg E4 monohydrate and remained at the site. Study-related assessments were performed at time points indicated in the Schedule of Assessments in Table 2.
Serial blood sampling for PK assessments started on Day 1 and proceeded until Day 9 according to the Pharmacokinetic Sampling Schedule presented in Table 3.
Each enrolled subject was to receive a single oral dose of 20 mg of E4 (estetrol) as monohydrate as a film-coated tablet.
Study drug was administered to subjects in the morning after an overnight fast of at least 8 h.
Calculation of non-compartmental PK parameters were done using WinNonlin™ Professional, Version 6.3 or higher.
The primary PK parameters to be analyzed for E4 in plasma: • Cmax=maximum observed plasma concentration • AUCinf=area under the concentration-time curve (AUC) from time zero extrapolated to infinity
The analysis of E4 and the metabolites E4-3-glucuronide and E4-16-glucuronide in plasma samples were performed at the Bioanalytical Laboratory of the CRO using a validated liquid chromatography-mass spectrometry/mass spectrometry method.
Individual and mean plasma concentrations at each sampling time point for E4 are presented by listings and descriptive summary statistics including means, geometric means (GMs), medians, ranges, standard deviations (SD) and coefficients of variation (CV). Individual, mean and/or median concentrations per hepatic function group were plotted versus time on semilogarithmic scales.
PK parameters were calculated by non-compartmental analysis. PK parameters were analysed using descriptive statistics and are presented by hepatic function group.
Analysis of variance (ANOVA) were used to compare primary PK parameters of E4 (Cmax and AUCinf) between subjects with hepatic impairment and subjects with normal hepatic function in an exploratory approach, using the log-transformed value of each PK parameter as dependent variable, and the hepatic impairment group (normal, mild, moderate, and severe) as a fixed classification factor. Geometric least squares means were used to calculate the ratios of primary PK parameters for each hepatic impairment group to those in the control group, along with 90% confidence intervals (CIs).
Additionally, the impact of age and BMI on the effect of hepatic impairment were evaluated using an ANOVA model similar as the ANOVA model described above, but with the interaction between each factor and the hepatic impairment group included as an additional factor.
The relationship between log-transformed PK parameters (Cmax and AUCinf) and continuous parameters (albumin, total bilirubin, and prothrombin time) used for the Child-Pugh score was explored by a linear regression approach. […]

[1] = mild hepatic impairment, single oral dose 20 mg
[2] = moderate hepatic impairment, single oral dose 20 mg
[3] = severe hepatic impairment, single oral dose 20 mg

Question: Which results are given for `C[C@]12CC[C@@H]3c4ccc(O)cc4CC[C@H]3[C@@H]1[C@@H](O)[C@@H](O)[C@@H]2O` [E4, 1,3,5 (10)-estratrien-3,15alpha, 16alpha, 17beta-tetrol]?
Answer: AUC(0-t) (Moderate hepatic impairment, single oral dose 20 mg E4 monohydrate, read-out: AUClast, Mean): 122 ng·h/mL; AUC(0-t) (Moderate hepatic impairment, single oral dose 20 mg E4 monohydrate, read-out: AUClast, Median): 114 ng·h/mL; Cmax (Moderate hepatic impairment, single oral dose 20 mg E4 monohydrate, read-out: Cmax, GM): 39.4 ng/mL; Cmax (Moderate hepatic impairment, single oral dose 20 mg E4 monohydrate, read-out: Cmax, Mean): ~52 ng/mL; Cmax (Moderate hepatic impairment, single oral dose 20 mg E4 monohydrate, read-out: Cmax, Median): 41.1 ng/mL; half-life (Moderate hepatic impairment, single oral dose 20 mg E4 monohydrate, read-out: T1/2, GM (converted)): 14.8 h; half-life (Moderate hepatic impairment, single oral dose 20 mg E4 monohydrate, read-out: T1/2, Mean (converted)): 16.6 h; half-life (Moderate hepatic impairment, single oral dose 20 mg E4 monohydrate, read-out: T1/2, Median (converted)): 14.3 h; Tmax (Moderate hepatic impairment, single oral dose 20 mg E4 monohydrate): 0.5 h; Vd/F (Moderate hepatic impairment, single oral dose 20 mg E4 monohydrate, read-out: Vz/F, GM): 3960 L; Vd/F (Moderate hepatic impairment, single oral dose 20 mg E4 monohydrate, read-out: Vz/F, Mean): 4760 L; Vd/F (Moderate hepatic impairment, single oral dose 20 mg E4 monohydrate, read-out: Vz/F, Median): 4150 L; AUC(0-inf) (Normal (Reference), one-way ANOVA, single oral dose 20 mg, read-out: AUCinf, Geometric LS Mean): 104 ng·h/mL; Cmax (Normal (Reference), one-way ANOVA, single oral dose 20 mg, read-out: Cmax, Geometric LS Mean): 20.8 ng/mL; AUC(0-t) (Normal hepatic function, single oral dose 20 mg E4 monohydrate, read-out: AUC0-24 h, GM): 60.4 ng·h/mL; AUC(0-t) (Normal hepatic function, single oral dose 20 mg E4 monohydrate, read-out: AUC0-24 h, Mean): 63.5 ng·h/mL; AUC(0-t) (Normal hepatic function, single oral dose 20 mg E4 monohydrate, read-out: AUC0-24 h, Median): 63.8 ng·h/mL; AUC(0-inf) (Normal hepatic function, single oral dose 20 mg E4 monohydrate, read-out: AUCinf, GM): 104 ng·h/mL; AUC(0-inf) (Normal hepatic function, single oral dose 20 mg E4 monohydrate, read-out: AUCinf, Mean): 108 ng·h/mL; AUC(0-inf) (Normal hepatic function, single oral dose 20 mg E4 monohydrate, read-out: AUCinf, Median): 113 ng·h/mL; AUC(0-t) (Normal hepatic function, single oral dose 20 mg E4 monohydrate, read-out: AUClast, GM): 103 ng·h/mL; AUC(0-t) (Normal hepatic function, single oral dose 20 mg E4 monohydrate, read-out: AUClast, Mean): 107 ng·h/mL; AUC(0-t) (Normal hepatic function, single oral dose 20 mg E4 monohydrate, read-out: AUClast, Median): 111 ng·h/mL; Cmax (Normal hepatic function, single oral dose 20 mg E4 monohydrate, read-out: Cmax, GM): 20.8 ng/mL; Cmax (Normal hepatic function, single oral dose 20 mg E4 monohydrate, read-out: Cmax, Mean): ~24 ng/mL; Cmax (Normal hepatic function, single oral dose 20 mg E4 monohydrate, read-out: Cmax, Median): 24.8 ng/mL; half-life (Normal hepatic function, single oral dose 20 mg E4 monohydrate, read-out: T1/2, GM (converted)): 21.7 h; half-life (Normal hepatic function, single oral dose 20 mg E4 monohydrate, read-out: T1/2, Mean (converted)): 22.3 h; half-life (Normal hepatic function, single oral dose 20 mg E4 monohydrate, read-out: T1/2, Median (converted)): 22.7 h; Tmax (Normal hepatic function, single oral dose 20 mg E4 monohydrate): 0.475 h; Vd/F (Normal hepatic function, single oral dose 20 mg E4 monohydrate, read-out: Vz/F, GM): 6000 L; Vd/F (Normal hepatic function, single oral dose 20 mg E4 monohydrate, read-out: Vz/F, Mean): 6590 L; Vd/F (Normal hepatic function, single oral dose 20 mg E4 monohydrate, read-out: Vz/F, Median): 6430 L; AUC(0-inf) (Severe (Test), one-way ANOVA, single oral dose 20 mg, read-out: AUCinf, Geometric LS Mean): 198 ng·h/mL; Cmax (Severe (Test), one-way ANOVA, single oral dose 20 mg, read-out: Cmax, Geometric LS Mean): 111 ng/mL; AUC(0-t) (Severe hepatic impairment, single oral dose 20 mg E4 monohydrate, read-out: AUC0-24 h, GM): 179 ng·h/mL; AUC(0-t) (Severe hepatic impairment, single oral dose 20 mg E4 monohydrate, read-out: AUC0-24 h, Mean): 184 ng·h/mL; AUC(0-t) (Severe hepatic impairment, single oral dose 20 mg E4 monohydrate, read-out: AUC0-24 h, Median): 172 ng·h/mL; AUC(0-inf) (Severe hepatic impairment, single oral dose 20 mg E4 monohydrate, read-out: AUCinf, GM): 198 ng·h/mL; AUC(0-inf) (Severe hepatic impairment, single oral dose 20 mg E4 monohydrate, read-out: AUCinf, Mean): 205 ng·h/mL; AUC(0-inf) (Severe hepatic impairment, single oral dose 20 mg E4 monohydrate, read-out: AUCinf, Median): 180 ng·h/mL; AUC(0-t) (Severe hepatic impairment, single oral dose 20 mg E4 monohydrate, read-out: AUClast, GM): 196 ng·h/mL; AUC(0-t) (Severe hepatic impairment, single oral dose 20 mg E4 monohydrate, read-out: AUClast, Mean): 204 ng·h/mL; AUC(0-t) (Severe hepatic impairment, single oral dose 20 mg E4 monohydrate, read-out: AUClast, Median): 178 ng·h/mL; Cmax (Severe hepatic impairment, single oral dose 20 mg E4 monohydrate, read-out: Cmax, GM): 111 ng/mL; Cmax (Severe hepatic impairment, single oral dose 20 mg E4 monohydrate, read-out: Cmax, Mean): ~117 ng/mL; Cmax (Severe hepatic impairment, single oral dose 20 mg E4 monohydrate, read-out: Cmax, Median): 109 ng/mL; half-life (Severe hepatic impairment, single oral dose 20 mg E4 monohydrate, read-out: T1/2, GM (converted)): 8.22 h; half-life (Severe hepatic impairment, single oral dose 20 mg E4 monohydrate, read-out: T1/2, Mean (converted)): 8.97 h; half-life (Severe hepatic impairment, single oral dose 20 mg E4 monohydrate, read-out: T1/2, Median (converted)): 6.26 h; Tmax (Severe hepatic impairment, single oral dose 20 mg E4 monohydrate): 0.25 h; Vd/F (Severe hepatic impairment, single oral dose 20 mg E4 monohydrate, read-out: Vz/F, GM): 1200 L; Vd/F (Severe hepatic impairment, single oral dose 20 mg E4 monohydrate, read-out: Vz/F, Mean): 1260 L; Vd/F (Severe hepatic impairment, single oral dose 20 mg E4 monohydrate, read-out: Vz/F, Median): 1220 L; time to primary peak plasma concentration after administration (group of severe hepatic impairment): ≤ 15 min; time post dose until which concentrations remained above LLOQ in at least half of the subjects (mild hepatic impairment): 144 h; time post-dose of last measurable concentration (Clast) (mild hepatic impairment, 192 h = last measured timepoint): 192 h; GM AUCinf compared to the control group (normal hepatic function) [1]: ~ 1.1 fold and 1.120 fold; GM Cmax compared to the control group (normal hepatic function) [1]: ~ 1.7 fold and 1.661 fold; time post dose until which concentrations remained above LLOQ in at least half of the subjects (moderate hepatic impairment): 96 h; time post-dose of last measurable concentration (Clast) (moderate hepatic impairment): 144 h; GM AUCinf compared to the control group (normal hepatic function) [2]: ~ 1.0 fold and 1.032 fold; GM Cmax compared to the control group (normal hepatic function) [2]: ~ 1.9 fold and 1.896 fold; time post dose until which concentrations remained above LLOQ in at least half of the subjects (normal hepatic function): 144 h; time post-dose of last measurable concentration (Clast) (normal hepatic function, 192 h = last measured timepoint): 192 h; time to primary peak plasma concentration after administration (on average, single oral dose 20 mg): ≤ 30 min; time post dose until which concentrations remained above LLOQ in at least half of the subjects (severe hepatic impairment): 48 h; time post-dose of last measurable concentration (Clast) (severe hepatic impairment): 168 h; GM AUCinf compared to the control group (normal hepatic function) [3]: ~ 1.9 fold and 1.894 fold; GM Cmax compared to the control group (normal hepatic function) [3]: ~ 5.4 fold and 5.359 fold; time after which log-linear terminal elimination phase is entered (single oral dose 20 mg): ~ 12 h
